# Assay results as given in patent US12281125B2, “Rapamycin derivatives” (NOVARTIS AG, priority 2018, dated 2025).
# Tests used:
# FKBP51 = biological target: T1, FKBP51 (Homo sapiens, UniProt Q13451); assay: SPR assay, binding affinity to FKBP51; conditions: equilibrium dissociation constant
# T1 construct: made in house; host or cells: E. coli
# T1 sequence (Q13451 1-457): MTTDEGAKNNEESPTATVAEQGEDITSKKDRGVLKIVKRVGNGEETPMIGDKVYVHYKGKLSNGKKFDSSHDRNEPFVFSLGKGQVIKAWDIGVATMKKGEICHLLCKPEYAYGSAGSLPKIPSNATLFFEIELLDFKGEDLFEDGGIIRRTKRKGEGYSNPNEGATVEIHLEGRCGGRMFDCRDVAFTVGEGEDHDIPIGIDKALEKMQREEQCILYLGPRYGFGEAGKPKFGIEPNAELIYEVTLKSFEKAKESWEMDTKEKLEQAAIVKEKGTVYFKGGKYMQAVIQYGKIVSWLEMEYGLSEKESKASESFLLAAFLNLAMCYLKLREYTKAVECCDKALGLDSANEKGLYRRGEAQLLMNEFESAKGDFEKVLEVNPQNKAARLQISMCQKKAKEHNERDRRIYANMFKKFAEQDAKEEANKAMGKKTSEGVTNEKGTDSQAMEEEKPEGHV
# Description: N-terminal avi-his6-tagged FKBP fusion proteins were expressed in E. coli and purified with nickel chromatography using standard procedures. Biotinylated his-avi-FKBPs were immobilized on a streptavidin chip using a Biacore 8K (GE Healthcare). […] The single-cycle kinetics data were fit to a 1:1 binding model to measure the association rate ka (1/Ms), the dissociation rate kd (1/s) and the affinity KD (M). […] The single-cycle kinetics data was fit to a 1:1 binding model to measure the association rate ka (1/Ms), the dissociation rate kd (1/s) and the apparent affinity KD (M) for ternary complex formation. The equilibrium dissociation constants (KD) to FKBP12, FKBP51, and FKBP52 are shown below in Table 6.
# [1] = biological target: T2, FKBP12-rapalog-mTOR (amino acids 2019-2112) ternary complex (Homo sapiens, UniProt P42345+P62942); assay: SPR ternary complex formation, rapalog bound to FKBP12 with mTOR; type: binding; conditions: rapalog bound to FKBP with mTOR, read-out: FKBP12 apparent affinity KD for ternary complex formation
# T2 construct: his^6-mTOR (amino acids 2019-2112) was diluted in buffer; made in house; host or cells: E. coli
# T2 sequence (P62942 whole entry, the tested form may be a part): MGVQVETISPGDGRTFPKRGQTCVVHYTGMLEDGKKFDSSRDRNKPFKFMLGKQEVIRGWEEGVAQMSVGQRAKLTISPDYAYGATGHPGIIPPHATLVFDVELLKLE
# T2 sequence (P42345 2019-2112 limits assumed): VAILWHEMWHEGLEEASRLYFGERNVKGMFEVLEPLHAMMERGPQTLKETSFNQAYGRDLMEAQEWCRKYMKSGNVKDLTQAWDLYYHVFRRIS
# Description: (§1) N-terminal avi-his6-tagged FKBP fusion proteins were expressed in E. coli and purified with nickel chromatography using standard procedures. Biotinylated his-avi-FKBPs were immobilized on a streptavidin chip using a Biacore 8K (GE Healthcare). To determine the kinetics-affinity of the rapalogs for FKBPs, rapalogs were diluted in DMSO to 50× working concentration. Next, 3.1 uLs of each rapalog solution was added to 150 uLs of buffer (50 mM Tris pH 7.5/150 mM NaCl/0.01% Tween 20/1 mM DTT) in a 384 deep well plate (greiner bio-one/78127) and mixed using a Biomek FX. The rapalog solution gradients (6 concentrations/2 fold dilutions, 3.1-100 nM or 31-1000 nM or 310-10000 nM) were then injected at 45 uL/min for 120 seconds: contact time and dissociation time was 1800 seconds in running buffer (50 mM Tris pH 7.5/150 mM NaCl/0.01% Tween 20/1 mM DTT/2% DMSO). The single-cycle kinetics data were fit to a 1:1 binding model to measure the association rate ka (1/Ms), the dissociation rate kd (1/s) and the affinity KD (M). […] 3.1 uLs of the 500 μM rapalog solutions were added to 150 uLs of the mTOR samples in a 384 deep well plate (greiner bio-one/78127) and mixed using a Biomek FX. The mTOR solution gradients were then injected at 45 uL/min for 120 seconds: contact time and dissociation time was 1800 seconds in running buffer (50 mM Tris pH 7.5/150 mM NaCl/0.01% Tween 20/1 mM DTT/2% DMSO). […]
# [2] = biological target: T3, FKBP12.6-rapalog-mTOR (amino acids 2019-2112) ternary complex (Homo sapiens, UniProt P42345+P68106); assay: SPR ternary complex formation, rapalog bound to FKBP12.6 with mTOR; type: binding; conditions: rapalog bound to FKBP with mTOR, read-out: FKBP12.6 apparent affinity KD for ternary complex formation
# T3 construct: his^6-mTOR (amino acids 2019-2112) was diluted in buffer; made in house; host or cells: E. coli
# T3 sequence (P68106 whole entry, the tested form may be a part): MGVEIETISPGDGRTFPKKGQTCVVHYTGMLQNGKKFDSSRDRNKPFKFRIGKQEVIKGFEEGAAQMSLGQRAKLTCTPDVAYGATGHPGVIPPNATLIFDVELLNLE
# T3 sequence (P42345 2019-2112 limits assumed): as the sequence (P42345 2019-2112 limits assumed) above
# Description: as §1
# [3] = biological target: T4, FKBP25-rapalog-mTOR (amino acids 2019-2112) ternary complex (Homo sapiens, UniProt P42345+Q00688); assay: SPR ternary complex formation, rapalog bound to FKBP25 with mTOR; type: binding; conditions: rapalog bound to FKBP with mTOR, read-out: FKBP25 apparent affinity KD for ternary complex formation
# T4 construct: his^6-mTOR (amino acids 2019-2112) was diluted in buffer; made in house; host or cells: E. coli
# T4 sequence (Q00688 whole entry, the tested form may be a part): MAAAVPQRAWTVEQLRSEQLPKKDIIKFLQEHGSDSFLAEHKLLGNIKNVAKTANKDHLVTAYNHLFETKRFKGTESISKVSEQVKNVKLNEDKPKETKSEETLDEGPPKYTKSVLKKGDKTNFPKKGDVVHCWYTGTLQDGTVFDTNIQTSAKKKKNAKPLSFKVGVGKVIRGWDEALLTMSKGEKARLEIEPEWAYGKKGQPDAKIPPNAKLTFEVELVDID
# T4 sequence (P42345 2019-2112 limits assumed): as the sequence (P42345 2019-2112 limits assumed) above
# Description: as §1
# [4] = biological target: T5, FKBP51-rapalog-mTOR (amino acids 2019-2112) ternary complex (Homo sapiens, UniProt P42345+Q13451); assay: SPR ternary complex formation, rapalog bound to FKBP51 with mTOR; type: binding; conditions: rapalog bound to FKBP with mTOR, read-out: FKBP51 apparent affinity KD for ternary complex formation
# T5 construct: his^6-mTOR (amino acids 2019-2112) was diluted in buffer; made in house; host or cells: E. coli
# T5 sequence (P42345 2019-2112 limits assumed, one chain of several): as the sequence (P42345 2019-2112 limits assumed) above
# Description: as §1
# [5] = biological target: T6, FKBP52-rapalog-mTOR (amino acids 2019-2112) ternary complex (Homo sapiens, UniProt P42345+Q02790); assay: SPR ternary complex formation, rapalog bound to FKBP52 with mTOR; type: binding; conditions: rapalog bound to FKBP with mTOR, read-out: FKBP52 apparent affinity KD for ternary complex formation
# T6 construct: his^6-mTOR (amino acids 2019-2112) was diluted in buffer; made in house; host or cells: E. coli
# T6 sequence (Q02790 whole entry, the tested form may be a part): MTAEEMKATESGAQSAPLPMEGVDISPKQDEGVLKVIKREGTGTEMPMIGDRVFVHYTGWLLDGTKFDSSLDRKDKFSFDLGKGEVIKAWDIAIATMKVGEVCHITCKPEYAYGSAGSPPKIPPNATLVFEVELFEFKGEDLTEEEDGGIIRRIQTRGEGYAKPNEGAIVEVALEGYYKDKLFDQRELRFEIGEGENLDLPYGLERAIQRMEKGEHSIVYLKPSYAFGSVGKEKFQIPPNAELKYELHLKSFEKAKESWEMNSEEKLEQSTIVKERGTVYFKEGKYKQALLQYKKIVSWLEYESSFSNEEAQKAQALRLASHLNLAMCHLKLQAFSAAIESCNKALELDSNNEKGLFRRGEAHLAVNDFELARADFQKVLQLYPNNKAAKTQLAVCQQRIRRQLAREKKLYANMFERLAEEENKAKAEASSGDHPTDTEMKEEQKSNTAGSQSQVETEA
# T6 sequence (P42345 2019-2112 limits assumed): as the sequence (P42345 2019-2112 limits assumed) above
# Description: as §1
# [6] = tested on: mTORC1 activity, S6K1 (Thr389) in FKBP12/12.6/25/52/51 knock-out 293T cells; assay: S6K1(Thr389) phosphorylation ELISA in FKBP12/12.6/25/52/51 knock-out 293T cells; type: cell-based
# Description: A CRISPR/Cas9 system was used to deliver ribonucleoprotein complexes containing guide RNA (gRNA) sequences that target FKBP12
# ([…], location 35620248) into 293T cells, using the Amaxa® 4D-Nucleofector™ X Kit (Lonza, V4XC-2032). Cell clones were screened by immunoblotting with anti-FKBP-specific antibodies: FKBP12 (Novus, NB300-508), FKBP12.6 (Abnova, H00002281-M01), FKBP13 (R&D Systems, MAB4356), FKBP25 (R&D Systems, MAB3955), FKBP52 (Cell signaling Technology, #11826) and FKBP51 (Cell signaling Technology, #12210). […] Quintuple FKBP12/12.6/13/52/51 knock-out and FKBP12/12.6/25/52/51 knock-out cells were generated by sequentially knocking out five FKBP genes.
# WT, FKBP12 knock-out, FKBP12/12.6/13/52/51 knock-out or FKBP12/12.6/25/52/51 knock-out 293T cells were plated at a density of 30,000 cells per well in poly-D-Lysine coated 96-well plates (Corning, #354461) in Dulbecco's modified Eagle's medium (ThermoFisher, #11995-065) supplemented with 10% fetal bovine serum (ThermoFisher, #16140-071). Cells were incubated at 37° C., 5% CO2 for 48 hours until they reached ˜80% confluence. […] Media supplemented with blank Dimethyl sulfoxide (DMSO) was used as a control for both compounds. Phosphorylated amounts of S6K1 (Thr389) were detected by a sandwich ELISA kit (Cell signaling, #7063C) following the manufacture's protocol.
Compound,Kd (FKBP51) [nM],Kd [1] [nM],Kd [2] [nM],Kd [3] [nM],Kd [4] [nM],Kd [5] [nM],"inhibitory effect (potency) on S6K1 (Thr389), in words [6]"
"CO[C@H]1C[C@@H]2CC[C@@H](C)[C@@](O)(O2)C(=O)C(=O)N2CCCC[C@H]2C(=O)O[C@H]([C@H](C)C[C@@H]2CC[C@@H](OCCO)[C@H](OC)C2)CC(=O)[C@H](C)/C=C(\C)[C@@H](O)[C@@H](OC)C(=O)[C@H](C)C[C@H](C)/C=C/C=C/C=C/1C [RAD001, everolimus, reference compound]",811,21,47,75,348,253,neither RAD001 nor Compound 2 were efficacious
CO[C@@H]1C[C@H](C[C@@H](C)[C@@H]2CC[C@H](C)/C=C(\C)[C@@H](O)[C@@H](OC)C(=O)[C@H](C)C[C@H](C)/C=C/C=C/C=C(\C)[C@@H](NS(C)(=O)=O)C[C@@H]3CC[C@@H](C)[C@@](O)(O3)C(=O)C(=O)N3CCCC[C@H]3C(=O)O2)CC[C@H]1O [Compound 2],144,25,55,2,52,36,neither RAD001 nor Compound 2 were efficacious
